In brackets after ≈: the same amount, converted by molar mass. Read-outs that look alike come from different tables or passages of the source.
Tests used:
[1] = system: E. coli B90; assay: Test A antibacterial assay, standard microtitration (MIC); assay type: cell-based; conditions: Gram negative, E. coli B90; for MIC: Escherichia coli, read-out: Minimum Inhibitory Concentrations E. coli B90
Procedure: (§1) Test A-Antibacterial Assay
(§2) The compounds of the present invention were tested against an assortment of Gram-negative and Gram-positive organisms using standard microtitration techniques (Cohen, et al., Antimicrob. Agents Chemother., 1985;28:766; Heifetz, et al., Antimicrob. Agents Chemother:, 1974;6:124). […]

[2] = system: E. coli MC 4100; assay: as above; assay type: cell-based; conditions: Gram negative, E. coli MC 4100; for MIC: Escherichia coli, MC4100, read-out: Minimum Inhibitory Concentrations E. coli MC 4100
Procedure: as §1, §2

[3] = system: E. coli Tol C; assay: as above; assay type: cell-based; conditions: for Minimum Inhibitory Concentrations E. coli Tol C: Gram negative; for MIC: Escherichia coli, read-out: Minimum Inhibitory Concentrations E. coli Tol C
Procedure: as §1, §2

[4] = system: E. faecalis RB1; assay: as above; assay type: cell-based; conditions: Gram positive, E. faecalis RB1; for MIC: Enterococcus faecalis, read-out: Minimum Inhibitory Concentrations E. faecalis RB1
Procedure: as §1, §2

[5] = system: S. aureus 29213; assay: as above; assay type: cell-based; conditions: Gram positive, S. aureus 29213; for MIC: Staphylococcus aureus, read-out: Minimum Inhibitory Concentrations S. aureus 29213
Procedure: as §1, §2

[6] = system: S. pyogenes C203; assay: as above; assay type: cell-based; conditions: Gram positive, S. pyogenes C203; for MIC: Streptococcus pyogenes, read-out: Minimum Inhibitory Concentrations S. pyogenes C203
Procedure: as §1, §2

[7] = target: E. coli gyrase (Escherichia coli, UniProt P0AES4+P0AES6); assay: biochemical
E. coli gyrase, sequence (P0AES4 whole entry, one chain of several): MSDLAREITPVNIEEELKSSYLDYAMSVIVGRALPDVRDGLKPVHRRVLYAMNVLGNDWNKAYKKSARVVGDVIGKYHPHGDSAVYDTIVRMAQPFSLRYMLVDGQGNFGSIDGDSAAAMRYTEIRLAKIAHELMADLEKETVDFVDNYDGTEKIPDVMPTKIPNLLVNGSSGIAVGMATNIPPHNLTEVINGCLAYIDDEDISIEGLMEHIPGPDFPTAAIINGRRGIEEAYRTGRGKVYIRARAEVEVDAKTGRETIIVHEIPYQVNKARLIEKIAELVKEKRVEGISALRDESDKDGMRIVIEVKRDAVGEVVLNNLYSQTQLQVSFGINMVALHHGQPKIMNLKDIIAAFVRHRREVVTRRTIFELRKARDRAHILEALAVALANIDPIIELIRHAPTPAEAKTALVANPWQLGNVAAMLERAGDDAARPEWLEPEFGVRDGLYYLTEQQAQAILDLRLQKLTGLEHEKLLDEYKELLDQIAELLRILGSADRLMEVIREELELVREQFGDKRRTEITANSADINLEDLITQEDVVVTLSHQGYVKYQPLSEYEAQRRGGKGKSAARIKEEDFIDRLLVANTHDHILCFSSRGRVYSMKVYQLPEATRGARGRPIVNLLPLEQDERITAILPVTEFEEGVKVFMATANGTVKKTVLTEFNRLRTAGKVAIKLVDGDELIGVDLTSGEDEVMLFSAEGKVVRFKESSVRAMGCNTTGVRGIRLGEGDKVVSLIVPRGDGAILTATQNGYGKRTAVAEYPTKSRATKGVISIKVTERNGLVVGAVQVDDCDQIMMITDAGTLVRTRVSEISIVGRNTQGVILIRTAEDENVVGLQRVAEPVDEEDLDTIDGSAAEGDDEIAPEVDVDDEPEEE

[8] = system: N. gonorrhoeae 2637; assay: Test D cross resistance antibacterial assay (MIC); assay type: cell-based, Neisseria gonorrhoeae; conditions: parent strain, derivative of MS11
Procedure: (§3) Test D-Cross Resistance Antibacterial Assay
(§4) The compounds of the present invention were tested against an assortment of ciprofloxacin resistant E. coli and S. aureus organisms described below using standard microtitration techniques (Cohen, et al., Antimicrob. Agents Chemother., 1985;28:766; Heifetz, et al., Antimicrob. Agents Chemother., 1974;6:124). […].
N. gonorrhoeae 2637 (N.g. 2637) is a derivative of Neisseria gonorrhoeae MS11 containing a TAC-LAC recA to allow for control of homologous recombination [Tonjum T. et al. Molecular Microbiology 1995, 16, 451-64].

[9] = system: N. gonorrhoeae 2709; assay: Test D cross resistance antibacterial assay (MIC); assay type: cell-based, Neisseria gonorrhoeae; conditions: for MIC fold increase N. g. 2709 (in parentheses): relative to MIC against N. g. 2637
Procedure: as §3, §4
N. gonorrhoeae 2709 (N.g. 2709): Isogenic to N. gonorrhoeae 2637 contains gyrA quinolone-resistant determining region (QRDR) mutations (S91F D95G).

[10] = system: N. gonorrhoeae 2693; assay: Test D cross resistance antibacterial assay (MIC); assay type: cell-based, Neisseria gonorrhoeae; conditions: for MIC fold increase N. g. 2693 (in parentheses): relative to MIC against N. g. 2637
Procedure: as §3, §4
N. gonorrhoeae 2693 (N.g. 2693): Isogenic to N. gonorrhoeae 2709 containing parC QRDR mutations [P88S and E91K].

[11] = system: S. aureus UC-76; assay: Test D cross resistance antibacterial assay (MIC); assay type: cell-based; conditions: wild type sensitive laboratory strain
Procedure: as §3, §4
S. aureus UC-76: Typical sensitive laboratory strain (Wild type).

[12] = system: S. aureus 2552; assay: Test D cross resistance antibacterial assay (MIC); assay type: cell-based; conditions: for MIC fold increase S. aureus 2552 (in parentheses): relative to MIC against S. aureus UC-76
Procedure: as §3, §4

[13] = system: S. aureus 2554; assay: Test D cross resistance antibacterial assay (MIC); assay type: cell-based; conditions: for MIC fold increase S. aureus 2554 (in parentheses): relative to MIC against S. aureus UC-76
Procedure: as §3, §4
S. aureus 2554: Isogenic to S. aureus 2552, with point mutation at position 80 of grlA subunit.

[14] = system: S. aureus 2558; assay: Test D cross resistance antibacterial assay (MIC); assay type: cell-based; conditions: for MIC fold increase S. aureus 2558 (in parentheses): relative to MIC against S. aureus UC-76
Procedure: as §3, §4
S. aureus 2558: Isogenic to S. aureus 2554, with point mutation at position 84 of gyrA subunit.

[15] = system: S. pyogenes; assay: Test C in vivo activity, median protective dose in mice given lethal systemic infections; conditions: PO, lethal systemic infection with S. pyogenes

7-(3-[1-Amino-1-(2-fluorophenyl)methyl]pyrrolidin-1-yl}-1-cyclopropyl-6-fluoro-6-methyl-1H-quinazolinedione Hydrochloride [Example 7j]
Minimum Inhibitory Concentrations E. coli B90 [1]: 0.25 µg/mL
Minimum Inhibitory Concentrations E. coli MC 4100 [2]: 8.0 µg/mL
Minimum Inhibitory Concentrations E. coli Tol C [3]: 0.06 µg/mL
Minimum Inhibitory Concentrations E. faecalis RB1 [4]: 0.25 µg/mL
Minimum Inhibitory Concentrations S. aureus 29213 [5]: 0.13 µg/mL
Minimum Inhibitory Concentrations S. pyogenes C203 [6]: 0.03 µg/mL
IC50 [7]: 0.8 µM
Minimum Inhibitory Concentrations N. g. 2637 [8]: 0.13 µg/mL
Minimum Inhibitory Concentrations N. g. 2709 ([9]; gyrA QRDR mutations (S91F D95G)): 0.5 µg/mL
MIC fold increase N. g. 2709 (in parentheses) [9]: (4x)
Minimum Inhibitory Concentrations N. g. 2693 ([10]; gyrA plus parC QRDR mutations [P88S and E91K]): 1.0 µg/mL
MIC fold increase N. g. 2693 (in parentheses) [10]: (8x)
Minimum Inhibitory Concentrations S. aureus UC-76 [11]: 0.06 µg/mL
MIC fold increase S. aureus 2552 (in parentheses) [12]: (1x)
Minimum Inhibitory Concentrations S. aureus 2552 ([12]; upregulated norA pump): 0.06 µg/mL
Minimum Inhibitory Concentrations S. aureus 2554 ([13]; norA plus point mutation at position 80 of grlA): 0.06 µg/mL
MIC fold increase S. aureus 2554 (in parentheses) [13]: (1x)
Minimum Inhibitory Concentrations S. aureus 2558 ([14]; norA, grlA plus point mutation at position 84 of gyrA): 0.06 µg/mL
MIC fold increase S. aureus 2558 (in parentheses) [14]: (1x)

Cc1c(-c2csc(CN)c2)c(F)cc2c(=O)[nH]c(=O)n(C3CC3)c12.Cl [Example 22j, 7-(5-Aminomethylthiophen-3-yl)-1-cyclopropyl-6-fluoro-8-methyl-1H-quinazoline-2,4-dione Hydrochloride]
MIC [1]: 1 µg/mL
MIC [2]: 8 µg/mL
MIC [3]: 1 µg/mL
MIC [4]: 2 µg/mL
MIC [5]: 1 µg/mL
MIC [6]: 0.25 µg/mL
IC50 ([7]; supercoiling of relaxed pBR322, 30 minutes at 37° C.): 1.4 µM

O=C(O)c1cn(C2CC2)c2cc(N3CCNCC3)c(F)cc2c1=O [Ciprofloxacin, ciprofloxacin, reference compound]
MIC [1]: < 0.01 µg/mL
MIC [2]: < 0.02 µg/mL
MIC [3]: < 0.01 µg/mL
MIC [4]: 0.5 µg/mL (≈ 1.51 µM)
MIC [5]: 0.5 µg/mL (≈ 1.51 µM)
MIC [6]: 0.5 µg/mL (≈ 1.51 µM)
PD50 [15]: >100.0 mg/kg
MIC ([8]; Neisseria gonorrhoeae, 2637, read-out: Minimum Inhibitory Concentrations N. g. 2637): 0.002 µg/mL
MIC ([9]; Neisseria gonorrhoeae, 2709, read-out: Minimum Inhibitory Concentrations N. g. 2709): 0.06 µg/mL (≈ 0.181 µM)
MIC fold increase N. g. 2709 (in parentheses) [9]: (30x)
MIC fold increase N. g. 2693 (in parentheses) [10]: (1000x)
MIC ([11]; Staphylococcus aureus, UC76, read-out: Minimum Inhibitory Concentrations S. aureus UC-76): 0.13 µg/mL (≈ 0.392 µM)
MIC ([12]; Staphylococcus aureus, 2552, upregulated norA pump, read-out: Minimum Inhibitory Concentrations S. aureus 2552): 2 µg/mL (≈ 6.04 µM)
MIC fold increase S. aureus 2552 (in parentheses) [12]: (15x)
MIC fold increase S. aureus 2554 (in parentheses) [13]: (15x)
MIC fold increase S. aureus 2558 (in parentheses) [14]: (123x)

7-[(R)-3-(1-Aminocyclopropyl)pyrrolidin-1-yl]-1-cyclopropyl-6-fluoro-8-methyl-1 h-quinazolinedione Hydrochloride [Example 26b]
Minimum Inhibitory Concentrations E. coli B90 [1]: 0.25 µg/mL
Minimum Inhibitory Concentrations E. coli MC 4100 [2]: 2.0 µg/mL
Minimum Inhibitory Concentrations E. coli Tol C [3]: 0.13 µg/mL
Minimum Inhibitory Concentrations E. faecalis RB1 [4]: 0.13 µg/mL
Minimum Inhibitory Concentrations S. aureus 29213 [5]: 0.25 µg/mL
Minimum Inhibitory Concentrations S. pyogenes C203 [6]: 0.03 µg/mL
IC50 [7]: 1.6 µM

CC1COc2c(N3CC[C@@H]([C@H](C)N)C3)c(F)c(N)c3c(=O)[nH]c(=O)n1c23.Cl (stereo partly drawn) [Example 16d, 7-Amino-9-[9-(R)-3-((S)-1-aminoethyl)pyrrolidin-1-yl)-8-fluoro-3-methyl-2,3-dihydro-1-oxa-3a,5-diazaphenalene-4,6-dione Hydrochloride]
Minimum Inhibitory Concentrations E. coli B90 [1]: 16.0 µg/mL
Minimum Inhibitory Concentrations E. coli MC 4100 [2]: >64.0 µg/mL
Minimum Inhibitory Concentrations E. coli Tol C [3]: 4.0 µg/mL
Minimum Inhibitory Concentrations E. faecalis RB1 [4]: 1.0 µg/mL
Minimum Inhibitory Concentrations S. aureus 29213 [5]: 1.0 µg/mL
Minimum Inhibitory Concentrations S. pyogenes C203 [6]: 0.5 µg/mL
IC50 [7]: 25 µM
